Data published in patent publication US20190194179A1, “ANTIBIOTIC COMPOUNDS” (DISCUVA LTD., priority 2016, published 2019).
Where a name gives a salt, the structure may show the parent alone.

Test system: Neisseria gonorrhoeae
Assay: EC50 determination: plate-based broth growth assay (absorbance at 600 nm) of Neisseria gonorrhoeae
Format: cell-based
Conditions: absorbance 600 nm after 20 hours at 37° C./5% CO2, read-out: IC50 (Inhibitory concentration) against Neisseria gonorrhoeae
Experimental: Actively growing Neisseria gonorrhoeae on GC agar (based on; Spence et. al. (2008): Curr. Protoc. Microbiol. 8:4A.1.1-4A.1.26) plates are harvested and transferred to GC broth (based on; Spence et al (2008): Curr. Protoc. Microbiol. 8:4A.1.1-4A.1.26) to generate a liquid stock. This culture is allowed to establish and grow to mid-log phase (at 37° C./5% CO2), finally this culture is diluted (˜10^5 cells/ml) to generate a seed inoculum to establish plate-based broth assays. EC50 values were determined by assaying growth (absorbance read at 600 nm, after 20 hours at 37° C./5% CO2) of Neisseria gonorrhoeae across a 10-point dilution series of the test compound. The EC50 value is determined from transformed data to identify the concentration of compound giving a 50% response relative to control samples (no compound).

SMILES	IC50
O=C(O)c1nc(Nc2nc3ccc(Cl)cc3o2)co1 [Example 182, 4-((6-chlorobenzo [d]oxazol-2-yl)amino)oxa-zole-2-carboxylic acid]	≤ 100 µM
Cn1cnc(Nc2nc3cc(C(F)(F)F)c(Cl)cc3o2)c1 [Example 140, 6-Chloro-N-(1-methyl-1H-imidazol-4-yl)-5-(trifluoromethyl)benzo[d]oxazol-2-amine]	≤ 1 µM
CC1CCCN1Cc1nnc(Nc2nc3cc(C(F)(F)F)ccc3o2)o1 (stereo not shown) [Example 73, N-(5-((2-Methylpyrrolidin-1-yl)methyl)-1,3,4-oxadiazol-2-yl)-5-(trifluoromethyl)benzo[d]oxazol-2-amine]	≤ 1 µM
Cc1nnc(Nc2nc3c(C)cccc3n2C)o1 [Example 90, N-(1,4-Dimethyl-1H-benzo[d]imidazol-2-yl)-5-methyl-1,3,4-oxadiazol-2-amine]	≤ 10 µM
CCOC(=O)c1nnc(Nc2nc3cc(C(F)(F)F)ccc3[nH]2)o1 [Example 56, Ethyl 5-((5-(trifluoromethyl)-1H-benzo[d]imidazol-2-yl)amino)-1,3,4-oxadiazole-2-carboxylate]	≤ 1 µM
NC(=O)c1nnc(Nc2nc3ccc(C(F)(F)F)cc3o2)o1 [Example 102, 5-((6-(Trifluoromethyl)benzo[d]oxazol-2-yl)amino)-1,3,4-oxadiazole-2-carboxamide]	≤ 100 µM
O=C(c1nnc(Nc2nc3c(Cl)cccc3o2)o1)N1CCCC1 [Example 134, (5-((4-Chlorobenzo[d]oxazol-2-yl)amino)-1,3,4-oxadiazol-2-yl)(pyrrolidin-1-yl)methanone]	≤ 10 µM
Cc1nnc(Nc2nc3ccc(Cl)cc3o2)[nH]1 [Example 122, 6-Chloro-N-(5-methyl-4H-1,2,4-triazol-3-yl)benzo[d]oxazol-2-amine]	≤ 10 µM
Cc1cc2oc(Nc3nnco3)nc2cc1Cl [Example 187, 5-Chloro-6-methyl-N-(1,3,4-oxadiazol-2-yl)benzo[d]ox-azol-2-amine]	≤ 0.1 µM
Clc1cnc2nc(Nc3nnco3)oc2c1 [Example 220, 6-Chloro-N-(1,3,4-oxadiazol-2-yl)oxazolo[4,5-b]pyridin-2-amine]	≤ 10 µM
Cc1ccc2oc(Nc3nc(C(=O)NC4CC4)cs3)nc2c1 [Example 16, N-Cyclopropyl-2-((5-methylbenzo[d]oxazol-2-yl)amino)thiazole-4-carboxamide]	≤ 1 µM
FC(F)(F)c1ccc2oc(Nc3nnc(C4CCNCC4)o3)nc2c1 [Example 145, N-(5-(Piperidin-4-yl)-1,3,4-oxadiazol-2-yl)-5-(trifluoromethyl)benzo[d]oxazol-2-amine hydrochloride]	≤ 100 µM
COc1cc2nc(Nc3nnco3)oc2cc1Cl [Example 204, 6-chloro-5-methoxy-N-(1,3,4-oxadiazol-2-yl)benzo[d]oxa-zol-2-amine]	≤ 1 µM
FC(F)(F)c1ccc2oc(Nc3ccon3)nc2c1 [Example 11, N-(Isoxazol-3-yl)-5-(trifluoromethyl)benzo[d]oxazol-2-amine]	≤ 1 µM
Cc1csc(Nc2nc3cc(C(F)(F)F)ccc3o2)n1 [Example 7, N-(4-Methylthiazol-2-yl)-5-(trifluoromethyl)benzo[d]oxazol-2-amine]	≤ 1 µM
FC(F)(F)c1cc2nc(Nc3nnc(CN4CCCC4)[nH]3)oc2cc1Cl [Example 137, 6-Chloro-N-(5-(pyrrolidin-1-ylmethyl)-4H-1,2,4-triazol-3-yl)-5-(trifluoromethyl)benzo[d]oxazol-2-amine]	≤ 0.1 µM
Cc1nnc(Nc2nc3cc(C(F)(F)F)c(Cl)cc3o2)[nH]1 [Example 125, 6-chloro-N-(5-methyl-4H-1,2,4-triazol-3-yl)-5-(trifluoromethyl)benzo[d]oxazol-2-amine]	≤ 0.1 µM

SMILES	IC50
O=C(O)c1csc(Nc2nc3cc(Cl)ccc3o2)n1 [Example 96, 2-((5-Chlorobenzo[d]oxazol-2-yl)amino)thiazole-4-carboxylic acid]	≤ 10 µM
Clc1cc(Cl)c2nc(Nc3nnco3)oc2c1 [Example 45, 4,6-Dichloro-N-(1,3,4-oxadiazol-2-yl)benzo[d]oxazol-2-amine]	≤ 0.1 µM
Clc1ccc2nc(Nc3ncno3)oc2c1 [Example 224, 6-chloro-N-(1,2,4-oxadiazol-5-yl)benzo[d]oxazol-2-amine]	≤ 100 µM
FC(F)(F)c1ccc2oc(Nc3nncs3)nc2c1 [Example 14, N-(1,3,4-Thiadiazol-2-yl)-5-(trifluoromethyl)benzo[d]oxazol-2-amine]	≤ 1 µM
NC(=O)c1csc(Nc2nc3cccc(Cl)c3o2)n1 [Example 36, 2-((7-Chlorobenzo[d]oxazol-2-yl)amino)thiazole-4-carboxamide]	≤ 1 µM
FC(F)(F)c1ccc2oc(Nc3nnc(CN4CCCC4)[nH]3)nc2c1 [Example 128, N-(5-(Pyrrolidin-1-ylmethyl)-4H-1,2,4-triazol-3-yl)-5-(trifluoromethyl)benzo[d]oxazol-2-amine]	≤ 1 µM
Cc1nnc(Nc2nc3ccc(C(F)(F)F)cc3n2C)o1 [Example 89, 5-Methyl-N-(1-methyl-6-(trifluoromethyl)-1H-benzo[d]imidazol-2-yl)-1,3,4-oxadiazol-2-amine]	≤ 1 µM
CC(C)Oc1ccc2nc(Nc3nnco3)oc2c1 [Example 196, 6-Isopropoxy-N-(1,3,4-oxadiazol-2-yl)benzo[d]oxazol-2-amine]	≤ 100 µM
FC(F)(F)c1ccc2oc(Nc3nc(Cl)cs3)nc2c1 [Example 100, N-(4-Chlorothiazol-2-yl)-5-(trifluoromethyl)benzo[d]oxazol-2-amine]	≤ 1 µM
CCNC(=O)c1csc(Nc2nc3cc(C(F)(F)F)ccc3o2)n1 [Example 3, N-Ethyl-2-((5-(trifluoromethyl)benzo[d]oxazol-2-yl)amino)thiazole-4-carboxamide]	≤ 1 µM
Cc1nnc(Nc2nc3cc(C(F)(F)F)ccc3o2)n1C [Example 143, N-(4,5-dimethyl-4H-1,2,4-triazol-3-yl)-5-(trifluoromethyl)benzo[d]oxazol-2-amine]	≤ 1 µM
Clc1cccc2oc(Nc3nnco3)nc12 [Example 120, 4-Chloro-N-(1,3,4-oxadiazol-2-yl)benzo[d]oxazol-2-amine]	≤ 1 µM
FC(F)(F)c1ccc2oc(Nc3nnc(CN4CCNCC4)o3)nc2c1 [Example 147, N-(5-(Piperazin-1-ylmethyl)-1,3,4-oxadiazol-2-yl)-5-(trifluoromethyl)benzo[d]oxazol-2-amine hydrochloride]	≤ 100 µM
Cc1nnc(Nc2nc3cnccc3o2)o1 [Example 58, N-(5-Methyl-1,3,4-oxadiazol-2-yl)oxazolo[4,5-c]pyridin-2-amine]	≤ 10 µM
FC(F)(F)c1ccc2oc(Nc3nnc([C@@H]4CCCN4)o3)nc2c1 [Example 146, (S)-N-(5-(pyrrolidin-2-yl)-1,3,4-oxadiazol-2-yl)-5-(trifluoromethyl)benzo[d]oxazol-2-amine hydrochloride]	≤ 1 µM
FC(F)(F)Oc1ccc2nc(Nc3nnco3)oc2c1 [Example 210, N-(1,3,4-Oxadiazol-2-yl)-6-(trifluoromethoxy) benzo[d]ox-azol-2-amine]	≤ 0.1 µM
O=C(Nc1ccnc(F)c1)c1csc(Nc2nc3cc(C(F)(F)F)ccc3o2)n1 [Example 98, N-(2-fluoropyridin-4-yl)-2-((5-(trifluoromethyl)benzo[d]oxazol-2-yl)amino)thiazole-4-carboxamide]	≤ 0.1 µM
